Earlier results in patent US20050244821A1, “Method of identification and quantification of biological molecules and apparatus therefore” (priority 2000, published 2005).

Molecular target: D2.3 antibody
Conditions: hapten and antibody free in solution; competitive ELISA, further by a fluorescence assay; read-out: affinity constant

- Kd: 4 nM
Substance: p-nitrobenzyl phosphonate N-glycylglutatarate [hapten 23.7]
